Assay results from paper PMC10674851, “Discovery and Characterization of a Dual-Function Peptide Derived from Bitter Gourd Seed Protein Using Two Orthogonal Bioassay-Guided Fractionations Coupled with In Silico Analysis” (Pharmaceuticals, 2023).
No end group written: not given here.

What was measured:
[1] = molecular target: T1, recombinant human dipeptidyl peptidase-IV (DPP4) (Homo sapiens, UniProt P27487); test: DPP4 inhibitory (DPP4I) activity assay, GP-pNA substrate, absorbance 405 nm; type: biochemical; conditions: seven logarithmic concentrations, non-linear interpolation; mean ± SD, triplicate
T1 construct: purchased Sigma-Aldrich Co. (Saint Louis, MO, USA)
Experimental: The DPP4 inhibitory activity was determined as described by Nong, N. T. P. et al., with a few modifications. The testing samples, GP-pNA, linagliptin, and DPP4 were dissolved in 0.1 M Tris-HCl buffer, pH 8.0. Briefly, 25 µL of the testing sample was premixed with 25 µL of 1.6 mM GP-pNA and incubated at 37 °C for 10 min. Then, 50 µL of DPP4 (0.5 U/µL) was added. The reaction was continued for 60 min at 37 °C. The enzymatic reaction was quenched by adding 100 µL of 1 M sodium acetate, pH 4.0. The absorbance of pNA, as a product of the DPP4 and GP-pNA reactions, was monitored using a PowerWave XS (Biotek®, Winooski, VT, USA) 96-well microplate reader at a wavelength of 405nm. DPP4 inhibitory activity was calculated by the following equation:(3) DPP4 inhibitory activity %=1−pNAinhibitor/pNA no inhibitor×100%,
The pNA(inhibitor) and pNA(no inhibitor) were the absorbances of the pNA (λ = 405 nm) acquired in the presence and absence of an inhibitor, respectively. The half-maximal inhibitory concentration of DPP4 inhibition (DPP4I IC50) value was calculated using a non-linear interpolation for at least six logarithmic concentrations of the inhibitor.

[2] = molecular target: T2, angiotensin-I-converting enzyme (ACE) from rabbit lungs (Oryctolagus cuniculus, UniProt P12822); test: ACE inhibitory (ACEI) activity assay, HHL substrate, hippuric acid by RP-HPLC; type: biochemical; conditions: synthetic AW6, seven logarithmic concentrations, non-linear interpolation; mean ± SD, triplicate
T2 construct: angiotensin-I-converting enzyme (ACE) from rabbit lungs; purchased Sigma-Aldrich Co. (Saint Louis, MO, USA); host or cells: rabbit lung tissue
T2 sequence (P12822 34-1310): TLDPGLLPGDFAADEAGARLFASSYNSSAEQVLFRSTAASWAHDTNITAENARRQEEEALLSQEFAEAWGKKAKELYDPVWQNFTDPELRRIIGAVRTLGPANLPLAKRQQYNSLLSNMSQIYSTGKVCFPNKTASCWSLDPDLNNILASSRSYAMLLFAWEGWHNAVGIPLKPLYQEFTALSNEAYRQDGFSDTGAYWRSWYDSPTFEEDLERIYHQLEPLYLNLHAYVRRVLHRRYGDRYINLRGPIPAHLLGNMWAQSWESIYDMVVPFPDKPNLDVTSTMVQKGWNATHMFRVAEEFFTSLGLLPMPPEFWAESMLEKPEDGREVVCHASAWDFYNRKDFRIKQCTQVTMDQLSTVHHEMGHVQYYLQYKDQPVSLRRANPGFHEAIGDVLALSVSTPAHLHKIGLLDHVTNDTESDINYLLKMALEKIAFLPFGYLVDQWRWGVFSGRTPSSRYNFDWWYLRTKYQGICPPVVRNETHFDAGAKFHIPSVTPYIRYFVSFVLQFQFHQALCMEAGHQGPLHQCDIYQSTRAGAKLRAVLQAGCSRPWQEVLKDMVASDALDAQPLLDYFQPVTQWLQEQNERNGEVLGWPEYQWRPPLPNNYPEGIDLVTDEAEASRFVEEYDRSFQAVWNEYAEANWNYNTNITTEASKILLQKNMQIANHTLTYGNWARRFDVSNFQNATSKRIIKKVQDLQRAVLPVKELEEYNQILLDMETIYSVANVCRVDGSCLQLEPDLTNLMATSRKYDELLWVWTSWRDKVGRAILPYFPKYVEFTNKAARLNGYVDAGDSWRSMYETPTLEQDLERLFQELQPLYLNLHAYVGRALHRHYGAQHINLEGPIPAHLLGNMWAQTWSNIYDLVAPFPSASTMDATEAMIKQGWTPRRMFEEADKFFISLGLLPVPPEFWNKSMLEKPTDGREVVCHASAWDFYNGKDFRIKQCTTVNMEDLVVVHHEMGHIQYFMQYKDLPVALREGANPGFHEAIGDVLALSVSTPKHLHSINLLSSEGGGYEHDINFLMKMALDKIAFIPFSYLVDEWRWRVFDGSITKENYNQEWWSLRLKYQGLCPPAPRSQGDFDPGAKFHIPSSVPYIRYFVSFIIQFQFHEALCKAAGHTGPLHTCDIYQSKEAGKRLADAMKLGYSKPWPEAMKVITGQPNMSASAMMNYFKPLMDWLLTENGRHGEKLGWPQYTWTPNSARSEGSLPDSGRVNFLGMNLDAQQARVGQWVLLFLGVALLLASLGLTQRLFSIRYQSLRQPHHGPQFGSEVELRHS
Experimental: The ACEI activity was studied according to Cushman and Cheung [43], with a few modifications. First, 10 µL of the testing sample was premixed with 30 µL of hippuryl–histidine–leucine (HHL) and incubated at 37 °C for 5 min. Then, 20 µL of ACE (0.05 mU/µL) was added. Afterward, the reaction was held statically at 37 °C for 30 min and continued with shaking at 200 rpm for another 30 min. Then, 60 µL of 1 N hydrogen chloride was used to quench the reaction, and 10 µL of 0.25 µg/µL ferulic acid was mixed for an internal standard. […] The area under the curve of hippuric acid (HA) was observed using UV–Vis RP-HPLC at a wavelength of 228 nm, 1 mL/min steady flow rate, and 15 min of isocratic elution (26% ACN with 0.1% TFA in deionized water). The inhibitory activity of ACE was determined using the following equation:(2) ACE inhibitory activity %=1−HAinhibitor/HAno inhibitor×100%,
The HA(inhibitor) and HA(no inhibitor) were the areas under the curve of the hippuric acid acquired in the presence and absence of an inhibitor. The half-maximal inhibitory concentration of ACE inhibition (ACEI IC50) was calculated using a non-linear interpolation constructed with a minimum of six logarithmic concentrations of the testing sample.

[3] = in vivo, cited from earlier work
Excerpt: Simultaneously, ACE2, a homologue of ACE, counteracts the vasoconstrictor effects by converting Ang-II into Ang 1–7 (a vasodilator). ACE2 also transforms Ang-I into Ang 1–9, and ACE hydrolyzes Ang 1–9 into Ang 1–7, resulting in a vasodilation effect. However, Ang 1–7 has a short half-life of only half an hour in the human body, and i ...

T1 sequence (P27487 whole entry): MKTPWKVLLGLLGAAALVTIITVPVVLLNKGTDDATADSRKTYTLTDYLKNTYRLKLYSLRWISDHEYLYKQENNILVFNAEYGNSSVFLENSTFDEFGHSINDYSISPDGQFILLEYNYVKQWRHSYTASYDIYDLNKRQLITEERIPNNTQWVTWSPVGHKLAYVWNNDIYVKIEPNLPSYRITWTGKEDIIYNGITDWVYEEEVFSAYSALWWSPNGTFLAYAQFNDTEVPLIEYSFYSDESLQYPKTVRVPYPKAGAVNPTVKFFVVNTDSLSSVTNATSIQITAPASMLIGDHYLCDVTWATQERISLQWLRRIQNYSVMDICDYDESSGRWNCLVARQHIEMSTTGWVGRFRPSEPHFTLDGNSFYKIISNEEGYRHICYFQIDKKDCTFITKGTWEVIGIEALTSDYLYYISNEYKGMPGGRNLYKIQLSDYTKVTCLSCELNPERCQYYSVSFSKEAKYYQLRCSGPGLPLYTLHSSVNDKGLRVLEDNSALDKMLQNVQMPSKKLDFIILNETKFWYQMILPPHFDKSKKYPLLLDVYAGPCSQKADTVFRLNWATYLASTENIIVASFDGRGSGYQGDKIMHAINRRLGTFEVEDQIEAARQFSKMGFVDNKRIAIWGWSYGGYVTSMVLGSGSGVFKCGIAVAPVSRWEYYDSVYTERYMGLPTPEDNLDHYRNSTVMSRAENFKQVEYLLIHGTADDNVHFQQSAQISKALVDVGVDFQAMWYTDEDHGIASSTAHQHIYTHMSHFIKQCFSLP

Substance | IC50 [1] | IC50 [2] | half-life ([3]; human) | time of peak concentration in plasma [3]
APLVSW [AW6, APLVSW] | 145 ± 4.4 µM | 9.6 ± 0.3 µM |  | 
Ang 1–7: vasodilator formed from Ang-II by ACE2 |  |  | half an hour | one hour
